The record followed here is patent US20240400577A1, “MODULATORS OF PROTEIN KINASES” (VIBLIOME THERAPEUTICS, LLC, priority 2021, published 2024).

Assay in all cases: Kinase panel enzymatic inhibition assay (Nanosyn)
Holding throughout (type): biochemical
What all share (conditions): compound 5 μM; ATP at Km; 30-minute pre-incubation

One test has as its target T1, Abl1 (Homo sapiens, UniProt P00519).
T1 construct: purchased Nanosyn (contract screening)
A digest of the protocol:
(§1)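 Inhibition is expressed as percent at 5 μM or as IC50, with ATP set at the Km of each kinase and a 30-minute compound pre-incubation. Detection used an accepted enzymatic format such as Caliper mobility shift.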

The target in a further test is T2, TAOK2 (Homo sapiens, UniProt Q9UL54).
T2 construct: Nanosyn (contract laboratory that ran the panel)
T2 sequence (Q9UL54 1-1235): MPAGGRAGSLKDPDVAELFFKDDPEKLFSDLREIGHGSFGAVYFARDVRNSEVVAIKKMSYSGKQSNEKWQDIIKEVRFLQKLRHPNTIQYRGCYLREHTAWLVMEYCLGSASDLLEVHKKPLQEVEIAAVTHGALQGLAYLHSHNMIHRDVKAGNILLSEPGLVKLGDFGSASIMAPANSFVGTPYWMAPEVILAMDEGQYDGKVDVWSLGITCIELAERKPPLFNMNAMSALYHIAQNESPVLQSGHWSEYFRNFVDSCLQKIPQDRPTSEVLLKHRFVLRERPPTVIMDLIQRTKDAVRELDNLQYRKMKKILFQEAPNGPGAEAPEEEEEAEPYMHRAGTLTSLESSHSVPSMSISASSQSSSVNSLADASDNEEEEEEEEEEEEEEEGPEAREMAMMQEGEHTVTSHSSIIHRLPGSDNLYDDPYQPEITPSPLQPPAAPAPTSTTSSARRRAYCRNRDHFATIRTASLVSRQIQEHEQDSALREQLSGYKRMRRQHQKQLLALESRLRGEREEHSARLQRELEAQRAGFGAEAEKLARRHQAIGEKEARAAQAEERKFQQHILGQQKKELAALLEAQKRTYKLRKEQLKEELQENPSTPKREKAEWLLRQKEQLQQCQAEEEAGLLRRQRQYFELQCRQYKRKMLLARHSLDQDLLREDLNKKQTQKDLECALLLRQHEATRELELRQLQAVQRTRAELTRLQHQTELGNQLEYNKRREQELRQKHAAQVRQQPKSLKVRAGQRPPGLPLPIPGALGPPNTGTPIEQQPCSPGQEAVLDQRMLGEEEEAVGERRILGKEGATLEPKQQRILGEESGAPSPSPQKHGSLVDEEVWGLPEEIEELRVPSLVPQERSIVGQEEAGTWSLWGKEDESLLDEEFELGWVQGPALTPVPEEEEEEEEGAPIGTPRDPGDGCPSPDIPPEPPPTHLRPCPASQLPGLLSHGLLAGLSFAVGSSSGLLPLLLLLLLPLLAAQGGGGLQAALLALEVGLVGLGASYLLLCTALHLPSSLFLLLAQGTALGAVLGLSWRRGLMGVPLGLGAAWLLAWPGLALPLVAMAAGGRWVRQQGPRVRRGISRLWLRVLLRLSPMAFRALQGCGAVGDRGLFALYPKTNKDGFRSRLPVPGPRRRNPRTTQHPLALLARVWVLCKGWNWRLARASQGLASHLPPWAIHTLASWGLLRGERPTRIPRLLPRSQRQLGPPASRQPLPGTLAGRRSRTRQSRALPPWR
A digest of the protocol:
as §1

The target in another test is T3, PIKfyve (Homo sapiens, UniProt Q9Y2I7).
T3 construct: Nanosyn (contract laboratory that ran the panel)
The gist of the method: as §1

A further test has as its target T4, CLK4 (Homo sapiens, UniProt Q9HAZ1).
T4 construct: purchased Nanosyn (contract screening)
A digest of the protocol:
as §1

For another test, the target named is T5, SGK3 (Homo sapiens, UniProt Q96BR1).
T5 construct: Nanosyn (contract laboratory that ran the panel)
T5 sequence (Q96BR1 1-496): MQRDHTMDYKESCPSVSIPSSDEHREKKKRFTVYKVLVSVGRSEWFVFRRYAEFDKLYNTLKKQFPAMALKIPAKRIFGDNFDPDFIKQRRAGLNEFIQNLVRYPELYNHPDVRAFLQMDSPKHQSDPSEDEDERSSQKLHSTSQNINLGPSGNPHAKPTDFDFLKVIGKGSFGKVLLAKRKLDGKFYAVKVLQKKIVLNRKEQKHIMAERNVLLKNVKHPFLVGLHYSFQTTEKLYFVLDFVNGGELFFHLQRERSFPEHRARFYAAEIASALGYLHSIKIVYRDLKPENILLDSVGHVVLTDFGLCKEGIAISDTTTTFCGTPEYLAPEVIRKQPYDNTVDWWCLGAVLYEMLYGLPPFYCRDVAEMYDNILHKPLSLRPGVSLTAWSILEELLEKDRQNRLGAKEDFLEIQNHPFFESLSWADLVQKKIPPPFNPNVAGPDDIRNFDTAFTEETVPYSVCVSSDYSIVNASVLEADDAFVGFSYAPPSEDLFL
The gist of the method:
as §1

Another test has as its target T6, SPHK2 (Homo sapiens, UniProt Q9NRA0).
T6 construct: Nanosyn (contract laboratory that ran the panel)
T6 sequence (Q9NRA0 1-654): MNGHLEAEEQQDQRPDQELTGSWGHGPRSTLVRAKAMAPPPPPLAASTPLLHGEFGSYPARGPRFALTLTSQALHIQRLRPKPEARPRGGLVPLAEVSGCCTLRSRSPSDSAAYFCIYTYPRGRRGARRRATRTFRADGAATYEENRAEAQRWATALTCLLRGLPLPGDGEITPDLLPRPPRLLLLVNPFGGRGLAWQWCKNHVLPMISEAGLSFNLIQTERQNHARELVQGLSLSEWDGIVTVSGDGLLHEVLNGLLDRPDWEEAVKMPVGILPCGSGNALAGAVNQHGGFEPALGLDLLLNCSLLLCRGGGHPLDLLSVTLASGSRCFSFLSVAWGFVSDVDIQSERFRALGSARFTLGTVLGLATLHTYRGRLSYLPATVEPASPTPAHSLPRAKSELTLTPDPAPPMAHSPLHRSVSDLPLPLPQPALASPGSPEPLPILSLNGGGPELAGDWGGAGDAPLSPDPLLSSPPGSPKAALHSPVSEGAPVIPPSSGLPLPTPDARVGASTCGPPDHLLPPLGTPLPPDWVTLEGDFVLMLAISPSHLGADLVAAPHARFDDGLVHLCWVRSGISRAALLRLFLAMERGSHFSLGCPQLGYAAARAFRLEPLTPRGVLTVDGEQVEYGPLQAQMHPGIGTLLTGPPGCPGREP
A digest of the protocol:
as §1

Where only a bound is given, the exact number is not on record here.

T3 sequence (Q9Y2I7 whole entry): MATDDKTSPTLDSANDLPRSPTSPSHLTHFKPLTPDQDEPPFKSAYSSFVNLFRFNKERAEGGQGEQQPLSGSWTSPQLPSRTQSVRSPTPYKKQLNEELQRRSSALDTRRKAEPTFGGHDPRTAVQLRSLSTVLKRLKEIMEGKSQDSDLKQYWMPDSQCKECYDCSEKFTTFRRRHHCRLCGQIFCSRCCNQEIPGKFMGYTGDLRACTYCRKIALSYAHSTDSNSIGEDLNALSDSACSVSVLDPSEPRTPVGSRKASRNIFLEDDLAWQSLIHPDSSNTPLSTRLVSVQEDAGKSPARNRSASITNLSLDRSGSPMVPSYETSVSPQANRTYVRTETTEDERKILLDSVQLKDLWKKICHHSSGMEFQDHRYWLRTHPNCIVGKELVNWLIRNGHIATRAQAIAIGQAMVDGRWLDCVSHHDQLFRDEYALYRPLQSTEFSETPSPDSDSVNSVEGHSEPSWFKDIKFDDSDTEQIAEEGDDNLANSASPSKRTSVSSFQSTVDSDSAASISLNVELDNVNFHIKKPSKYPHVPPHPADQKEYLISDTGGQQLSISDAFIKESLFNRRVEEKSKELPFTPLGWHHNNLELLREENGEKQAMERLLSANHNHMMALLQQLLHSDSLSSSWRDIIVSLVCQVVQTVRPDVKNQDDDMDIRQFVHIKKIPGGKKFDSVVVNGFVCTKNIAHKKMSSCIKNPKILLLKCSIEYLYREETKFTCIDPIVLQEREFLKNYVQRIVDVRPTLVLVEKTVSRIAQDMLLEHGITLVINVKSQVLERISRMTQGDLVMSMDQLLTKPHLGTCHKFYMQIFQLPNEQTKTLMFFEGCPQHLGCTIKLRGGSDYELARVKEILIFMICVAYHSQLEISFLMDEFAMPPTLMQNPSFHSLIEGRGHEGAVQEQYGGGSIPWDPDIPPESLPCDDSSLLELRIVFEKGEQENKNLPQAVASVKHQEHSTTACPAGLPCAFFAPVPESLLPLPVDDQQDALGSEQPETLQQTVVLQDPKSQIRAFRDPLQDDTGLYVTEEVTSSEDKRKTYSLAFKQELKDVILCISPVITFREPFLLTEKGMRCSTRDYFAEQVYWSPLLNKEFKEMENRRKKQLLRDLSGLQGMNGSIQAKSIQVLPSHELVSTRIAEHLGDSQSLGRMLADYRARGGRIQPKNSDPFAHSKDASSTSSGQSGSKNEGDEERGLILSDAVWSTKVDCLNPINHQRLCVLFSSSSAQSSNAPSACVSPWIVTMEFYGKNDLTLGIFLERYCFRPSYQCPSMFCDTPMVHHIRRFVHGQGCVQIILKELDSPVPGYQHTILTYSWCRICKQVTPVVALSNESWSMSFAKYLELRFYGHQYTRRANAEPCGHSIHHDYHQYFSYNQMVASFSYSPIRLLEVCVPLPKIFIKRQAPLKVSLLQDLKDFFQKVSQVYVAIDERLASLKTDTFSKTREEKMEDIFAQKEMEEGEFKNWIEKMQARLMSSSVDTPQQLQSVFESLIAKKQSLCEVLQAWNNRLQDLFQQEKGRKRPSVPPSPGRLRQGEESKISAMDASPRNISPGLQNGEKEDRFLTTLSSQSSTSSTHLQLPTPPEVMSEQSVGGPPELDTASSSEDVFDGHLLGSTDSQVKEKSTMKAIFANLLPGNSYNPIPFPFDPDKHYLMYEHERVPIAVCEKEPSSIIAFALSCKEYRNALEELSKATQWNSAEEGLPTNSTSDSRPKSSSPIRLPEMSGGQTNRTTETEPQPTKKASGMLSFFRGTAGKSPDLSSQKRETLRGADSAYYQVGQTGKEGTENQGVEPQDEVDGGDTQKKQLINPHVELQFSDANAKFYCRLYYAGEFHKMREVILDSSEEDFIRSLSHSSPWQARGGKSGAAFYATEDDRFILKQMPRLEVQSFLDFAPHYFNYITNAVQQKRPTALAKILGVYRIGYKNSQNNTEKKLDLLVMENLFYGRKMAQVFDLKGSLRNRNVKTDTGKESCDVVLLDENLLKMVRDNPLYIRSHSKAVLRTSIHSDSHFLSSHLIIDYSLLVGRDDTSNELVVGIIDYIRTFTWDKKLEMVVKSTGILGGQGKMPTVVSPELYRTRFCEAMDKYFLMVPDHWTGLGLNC
T1 sequence (P00519 whole entry): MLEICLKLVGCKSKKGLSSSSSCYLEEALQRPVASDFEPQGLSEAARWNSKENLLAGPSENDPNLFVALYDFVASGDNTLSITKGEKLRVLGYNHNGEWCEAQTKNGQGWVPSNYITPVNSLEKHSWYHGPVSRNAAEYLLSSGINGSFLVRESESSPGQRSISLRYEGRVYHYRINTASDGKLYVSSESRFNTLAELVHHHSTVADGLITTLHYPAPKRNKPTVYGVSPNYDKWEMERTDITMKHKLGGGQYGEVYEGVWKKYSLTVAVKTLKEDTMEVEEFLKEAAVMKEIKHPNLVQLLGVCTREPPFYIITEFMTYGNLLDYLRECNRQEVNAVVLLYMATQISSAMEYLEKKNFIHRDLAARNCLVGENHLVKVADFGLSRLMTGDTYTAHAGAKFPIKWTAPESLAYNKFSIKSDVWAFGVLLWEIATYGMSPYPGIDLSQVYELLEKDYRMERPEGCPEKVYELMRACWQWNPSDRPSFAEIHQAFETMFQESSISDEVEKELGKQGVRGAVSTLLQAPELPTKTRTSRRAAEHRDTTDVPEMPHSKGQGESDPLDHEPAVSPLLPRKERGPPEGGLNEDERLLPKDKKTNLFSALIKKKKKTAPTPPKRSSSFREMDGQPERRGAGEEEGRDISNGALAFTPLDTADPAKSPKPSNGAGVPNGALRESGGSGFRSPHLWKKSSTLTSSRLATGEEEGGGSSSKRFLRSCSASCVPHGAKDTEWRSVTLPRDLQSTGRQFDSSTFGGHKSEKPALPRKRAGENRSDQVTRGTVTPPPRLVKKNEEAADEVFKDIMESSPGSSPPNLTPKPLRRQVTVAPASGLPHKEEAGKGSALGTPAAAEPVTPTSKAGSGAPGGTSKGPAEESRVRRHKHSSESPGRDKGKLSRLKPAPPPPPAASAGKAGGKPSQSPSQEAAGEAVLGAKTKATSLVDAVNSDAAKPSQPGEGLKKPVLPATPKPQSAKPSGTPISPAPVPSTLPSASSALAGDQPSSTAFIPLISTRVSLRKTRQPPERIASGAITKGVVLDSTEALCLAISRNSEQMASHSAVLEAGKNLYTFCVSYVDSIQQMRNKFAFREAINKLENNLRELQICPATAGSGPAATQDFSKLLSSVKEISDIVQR
T4 sequence (Q9HAZ1 whole entry): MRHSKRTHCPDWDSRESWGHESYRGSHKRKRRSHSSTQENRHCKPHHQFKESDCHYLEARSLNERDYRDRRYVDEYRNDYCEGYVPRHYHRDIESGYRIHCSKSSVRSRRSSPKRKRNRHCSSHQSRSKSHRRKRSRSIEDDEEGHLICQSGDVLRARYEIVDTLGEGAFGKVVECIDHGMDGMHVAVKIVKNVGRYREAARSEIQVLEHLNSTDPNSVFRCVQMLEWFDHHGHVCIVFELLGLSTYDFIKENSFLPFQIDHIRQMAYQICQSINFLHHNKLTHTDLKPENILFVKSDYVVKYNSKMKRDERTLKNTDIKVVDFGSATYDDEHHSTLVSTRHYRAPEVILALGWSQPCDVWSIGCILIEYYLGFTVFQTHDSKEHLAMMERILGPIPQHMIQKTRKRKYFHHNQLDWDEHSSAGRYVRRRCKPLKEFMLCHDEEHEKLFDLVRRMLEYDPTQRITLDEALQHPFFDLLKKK

Usually inhibition stands for the change of the read-out against control, counted positive when it falls. Consider `Cc1ccc(NC(=O)c2cc(S(C)(=O)=O)n(-c3ccc(F)cc3)n2)cc1Nc1ccc2ncn(C)c(=O)c2c1` [Ex4, 1-(4-fluorophenyl)-N-(4-methyl-3-((3-methyl-4-oxo-3,4-dihydroquinazolin-6-yl)amino)phenyl)-5-(methylsulfonyl)-1H-pyrazole-3-carboxamide], for which the inhibition at 5 µM at Abl1, on TAOK2, against PIKfyve, at CLK4, at SGK3 and at SPHK2 was less than 79% throughout.
With `Cc1ccc(NC(=O)c2cc([S+](C)[O-])n(-c3ccc(F)cc3)n2)cc1Nc1ccc2ncn(C)c(=O)c2c1` (stereo not drawn) [Ex5, 1-(4-fluorophenyl)-N-(4-methyl-3-((3-methyl-4-oxo-3,4-dihydroquinazolin-6-yl)amino)phenyl)-5-(methylsulfinyl)-1H-pyrazole-3-carboxamide], the inhibition at 5 µM against Abl1, against TAOK2, at PIKfyve, at CLK4, at SGK3 and at SPHK2 was less than 79% in each case.
For `Cc1ccc(NC(=O)c2cc([S+](C)[O-])n(-c3ccc(F)cc3)n2)cc1C#Cc1cnc2cccnn12` (stereo not drawn) [Ex6, 1-(4-fluorophenyl)-N-(3-(imidazo[1,2-b]pyridazin-3-ylethynyl)-4-methylphenyl)-5-(methylsulfinyl)-1H-pyrazole-3-carboxamide], the inhibition at 5 µM is less than 79% against Abl1; less than 79% against TAOK2; 90 to 94% against PIKfyve; less than 79% against CLK4; less than 79% on SGK3; less than 79% at SPHK2.
For the compound `CNC(=O)c1cc(Oc2ccc(F)c(NC(=O)c3cc([S+](C)[O-])n(-c4ccc(F)cc4)n3)c2)ccn1` (stereo not drawn) [Ex7, 4-(4-fluoro-3-(1-(4-fluorophenyl)-5-(methylsulfinyl)-1H-pyrazole-3-carboxamido)phenoxy)-N-methylpicolinamide], the inhibition at 5 µM against Abl1, at TAOK2, against PIKfyve, on CLK4, on SGK3 and against SPHK2 was less than 79% each time.
Take `CSc1cc(C(=O)Nc2cc(Oc3ccnc(C(=O)NC4CNC4)c3)ccc2F)nn1-c1ccc(F)cc1` [Ex8, N-(azetidin-3-yl)-4-(4-fluoro-3-(1-(4-fluorophenyl)-5-(methylthio)-1H-pyrazole-3-carboxamido)phenoxy)picolinamide]: the inhibition at 5 µM against Abl1 is less than 79%; against TAOK2, less than 79%; at PIKfyve it was less than 79%; against CLK4, 80 to 89%; against SGK3, 80 to 89%; at SPHK2, less than 79%.
In the case of `Cc1ccc(NC(=O)c2cc(S(C)(=O)=O)n(-c3ccc(F)cc3)n2)cc1-c1cc(OCCO)nc(N2CCOCC2)c1` [Ex9, 1-(4-fluorophenyl)-N-(3-(2-(2-hydroxyethoxy)-6-morpholinopyridin-4-yl)-4-methylphenyl)-5-(methylsulfonyl)-1H-pyrazole-3-carboxamide], the inhibition at 5 µM was less than 79% against Abl1; not below 95% at TAOK2; less than 79% against PIKfyve; less than 79% against CLK4; less than 79% at SGK3; less than 79% on SPHK2.
In the case of `Cc1ccc(NC(=O)c2cc([S+](C)[O-])n(-c3ccc(F)cc3)n2)cc1-c1cc(OCCO)nc(N2CCOCC2)c1` (stereo not drawn) [Ex10, 1-(4-fluorophenyl)-N-(3-(2-(2-hydroxyethoxy)-6-morpholinopyridin-4-yl)-4-methylphenyl)-5-(methylsulfinyl)-1H-pyrazole-3-carboxamide], the inhibition at 5 µM on Abl1 was less than 79%; against TAOK2, 90 to 94%; on PIKfyve, less than 79%; against CLK4, less than 79%; against SGK3 it was less than 79%; against SPHK2 it was less than 79%.
As to `Cc1ccc(NC(=O)c2cc([S+](C)[O-])n(-c3ccc(F)cc3)n2)cc1-c1cc(N2CCOCC2)c(=O)n(C)c1` (stereo not drawn) [Ex11, 1-(4-fluorophenyl)-N-(4-methyl-3-(1-methyl-5-morpholino-6-oxo-1,6-dihydropyridin-3-yl)phenyl)-5-(methylsulfinyl)-1H-pyrazole-3-carboxamide], the inhibition at 5 µM at Abl1, against TAOK2, on PIKfyve, against CLK4, against SGK3 and against SPHK2 was less than 79% throughout.
With `Cc1ccc(NC(=O)c2cc(S(C)(=O)=O)n(-c3ccc(F)cc3)n2)cc1-c1cc(N2CCOCC2)c(=O)n(C)c1` [Ex12, 1-(4-fluorophenyl)-N-(4-methyl-3-(1-methyl-5-morpholino-6-oxo-1,6-dihydropyridin-3-yl)phenyl)-5-(methylsulfonyl)-1H-pyrazole-3-carboxamide], the inhibition at 5 µM against Abl1 is less than 79%; against TAOK2 it was 80 to 89%; on PIKfyve it was less than 79%; on CLK4, less than 79%; against SGK3 it was less than 79%; against SPHK2, less than 79%.
With `Cc1ccc(NC(=O)c2cc(S(C)(=O)=O)n(-c3ccc(F)cc3)n2)cc1Nc1nccc(-c2cccnc2N)n1` [Ex13, N-(3-((4-(2-aminopyridin-3-yl)pyrimidin-2-yl)amino)-4-methylphenyl)-1-(4-fluorophenyl)-5-(methylsulfonyl)-1H-pyrazole-3-carboxamide], the inhibition at 5 µM against Abl1 is not below 95%; on TAOK2, less than 79%; against PIKfyve it was less than 79%; against CLK4, less than 79%; at SGK3 it was less than 79%; at SPHK2, 80 to 89%.
